Reference: patent US20170099837A1, “EXTRACTS OF AGRICULTURAL HUSKS USED TO MODIFY THE METABOLISM OF PLANTS” (priority 2014, published 2017)

Key:
pepper bell seedlings = assay: Protection of pepper bell seedlings exposed to saline stress
Method: Protection offered by the composition in plants exposed to saline stress was observed through an assay with pepper bell seedlings, cultivar “npiter”. These seedlings were placed in germination plates with peat-moss as substrate and kept during a 40-day period and then transferred to 5-L pots. Adaptation period before treatment commencement consisted of daily irrigation during 10 days reaching saturation by a nutrient formulation based on 100-50-100 N-P-K at 1 mg/L concentrations. Used treatments in the assay were prepared in 100 L containers where NaCl was added until reaching a concentration of 25 mM/L, plus nutrients based on Hoagland formula (50% of its concentration). Irrigation frequency with this nutrient solution was every day, applying a 350 cm^3 volume per plant during the whole assay. Composition application was carried out once per week at a dose of […]. Based on a daily irrigation volume of 350 mL/plant, weekly application of the composition was 0.6 cm^3 per 7 days in 350 cm^3 of irrigation water per plant.

Daphnia magna = assay: 48-h static toxicity test on Daphnia magna; settings: in vivo
Method: In contrast, pure nitrated phenolic compounds such as p-nitrofenol show toxicities up to 125 times higher, measured as mean lethal concentration (CL50) over Daphnia magna or as concentration without observed effect (CSEO by its Spanish acronym).
The study was carried out to determine composition toxicity on Daphnia magna in a 48-h static test. Test concentrations were determined through a range test. Concentrations used for the definitive test were 62.5, 125, 250, 500 and 1000 mg/L, administered to the system, Daphnia magna, in fresh water. Three copies of 10 organisms were used for each concentration test. Control containers were used, placing 10 daphnides in fresh water without the composition. Dissolved oxygen, temperature, conductivity and pH were assessed at the beginning of the test and after each dose. Observations for immobility were made daily in a test chamber. The test ended after 48±1 hour of exposure. The concentration without observed effect (CSEO) of the composition was 250 mg/L and CE50 (Mean Effective Concentration) was determined higher than 1000 mg/L.

[1] = 25 mM NaCl irrigation, composition 0.6 mL per plant per day applied weekly

Question: For [Cl-].[Na+] [25 mM NaCl, NaCl], which “Foliar area (cm^2/plant)” value (pepper bell seedlings; [1]) is on record?
Answer: 1050 cm^2/plant

Question: What about the Leaves per plant (pepper bell seedlings; [1]) of the same compound?
Answer: 50

Question: And the “reduction of number of leaves per plant” value (pepper bell seedlings; treatment with 25 mM NaCl)?
Answer: about 27%

Question: With O=[N+]([O-])c1ccc(O)cc1 [p-nitrofenol] as the compound, how does the “toxicity relative to the composition, measured as mean lethal concentration (CL50) over Daphnia magna or as CSEO” value (Daphnia magna) read?
Answer: up to 125 times higher
